pIC50: −log10 of the molar value. Values joined by “and” are separate entries in the source; they are usually repeats but may differ in a detail not shown here. Equal values may be shown once. “Also recorded” adds a separate entry of the source. Read-outs that look alike come from different tables or passages of the source.
Key:
HCoV-229E [1] = assay: HCoV-229E viral replication inhibition in MRC5 cells (antibody- or oligonucleotide-based dot blot); format: cell-based, human coronavirus HCoV-229E; conditions: for inhibition of HCoV-229E viral replication, agent alone: MRC5, MOI 0.1, 48 hours drug, antibody-based assay; for pIC50 / IC50: Human coronavirus 229E; for fold reduction of IC50 for inhibition of viral replication by VPA preincubation: preincubation 24 or 48 hours / at least 24 hours prior to infection
HDAC2 = HDAC2 (Chlorocebus sabaeus, UniProt A0A0D9RT33); assay: Direct inhibition of HDAC2 activity in Vero cells; format: cell-based; conditions: read-out: IC50 of directly inhibiting HDAC2 activity
HDAC2, sequence (A0A0D9RT33 1-488): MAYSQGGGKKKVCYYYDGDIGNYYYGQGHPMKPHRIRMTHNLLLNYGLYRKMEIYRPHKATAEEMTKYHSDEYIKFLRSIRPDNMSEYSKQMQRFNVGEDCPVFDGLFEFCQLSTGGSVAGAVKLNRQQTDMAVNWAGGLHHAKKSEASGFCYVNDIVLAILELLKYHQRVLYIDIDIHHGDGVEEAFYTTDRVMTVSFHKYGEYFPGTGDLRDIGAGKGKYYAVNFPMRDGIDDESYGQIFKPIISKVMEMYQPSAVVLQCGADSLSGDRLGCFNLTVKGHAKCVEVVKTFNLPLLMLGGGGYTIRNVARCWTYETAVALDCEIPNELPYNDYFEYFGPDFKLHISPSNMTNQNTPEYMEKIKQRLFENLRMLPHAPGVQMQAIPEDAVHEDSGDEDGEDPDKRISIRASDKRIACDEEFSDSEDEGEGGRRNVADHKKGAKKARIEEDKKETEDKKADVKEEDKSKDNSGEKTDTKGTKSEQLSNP

HCoV-229E [2] = assay: Viral RNA as % of total RNA by RNAseq in MRC5 cells infected with HCoV-229E; format: cell-based, human coronavirus HCoV-229E; conditions: drug added after 1 hour viral incubation, 48 hours; VPA 0.1 or 0.5 mM, DHA 25 μM
SARS-CoV2 [3] = assay: Optum dataset case-control analysis: COVID-19 positivity by nucleic acid testing in patients prescribed VPA; format: in vivo; conditions: patients prescribed VPA vs not, exact-matched multivariate analysis
SARS-CoV2 [4] = conditions: dose range of VPA (M range) less than the IC50 of HDAC2 inhibition; cited from earlier work
COVID-19 [5] = assay: Optum retrospective cohort: clinical progression of COVID-19 in patients prescribed or not prescribed VPA; format: in vivo
COVID-19 [6] = conditions: 165 VPA-treated patients admitted for COVID-19; cited from earlier work
[7] = use in pregnant women; cited from earlier work
SARS-CoV2 [8] = assay: SARS-CoV2 replication in MRC5 cells, viral RNA by qRT-PCR; format: cell-based
p21 = p21 induction time course in Vero cells; format: cell-based; conditions: 2.55 mM VPA
COVID-19 [9] = conditions: therapeutic VPA cohort; serum levels for 442 of 691 patients; cited from earlier work
[10] = Serum VPA levels in a national data set (LabCorp)
MRC5 cells = assay: VPA time course RNAseq in MRC5 cells, SARS-CoV2 interacting (Gordon) gene set; format: cell-based, Homo sapiens
[11] = in vivo; cited from earlier work
[12] = COVID-19 infected patients exposed to VPA, propensity-matched or multivariate-adjusted model
[13] = patients on VPA tested by LabCorp, 2021

CC/C=C\C/C=C\C/C=C\CCCCCCCC(=O)O [ALA, alpha-linolenic acid]
inhibition of HCoV-229E viral replication, agent alone (HCoV-229E [1]): least impact; also recorded: least inhibition

CCCCC/C=C\C/C=C\CCCCCCCC(=O)O [LA, linoleic acid]
inhibition of HCoV-229E viral replication, agent alone (HCoV-229E [1]): substantial inhibitory effect; also recorded: significant inhibition of viral replication

CC(/C=C/C(=O)NO)=C\[C@@H](C)C(=O)c1ccc(N(C)C)cc1 [Trichostatin A, trichostatin A]
inhibition of HCoV-229E viral replication, agent alone (HCoV-229E [1]): did not significantly inhibit viral replication | inhibition of viral replication in combination with DHA (HCoV-229E [1]; with 25 μM DHA): inhibition across the board; also recorded: augmented at the very highest dose of Trichostatin A tested

CCCC(CCC)C(=O)O [VPA, valproic acid]
pIC50 (HDAC2): ≤ 2.60 | effect on viral replication (viral RNA as % of total RNA) (HCoV-229E [2]): not significantly impacted | decreased risk of contracting COVID-19 / reduction in COVID-19 positive testing (SARS-CoV2 [3]): 25% | inhibition of viral infection (SARS-CoV2 [4]): no measurable inhibition of viral infection | reduction in ER visits (COVID-19 [5]; [12]): 12-15% | reduction in ICU admissions (COVID-19 [5]; [12]): 14-16% | reduction in hospital admission (COVID-19 [5]; [12]): 17-45% | reduction in mechanical ventilation (COVID-19 [5]; [12]): 33-39% | protective effect against emergency room visits (COVID-19 [5]; univariate (unadjusted) logistic regression): no protective effect against emergency room visits | clinical course vs matched controls (COVID-19 [6]): shorter duration of symptoms, lower in-hospital respiratory worsening, lower ICU admissions, and fewer pulmonary infiltrates | mortality vs matched controls (COVID-19 [6]): not statistically different | elevation of the risk of certain birth defects [7]: roughly three-fold | reduction by 24 hours preincubation (SARS-CoV2 [8]; 24 hours preincubation vs none): more than 50% | inhibitory activity against SARS-CoV2 (SARS-CoV2 [8]; MRC5, MOI 0.1, VPA 0.5 mM, DHA 25 μM): substantial inhibitory activity | effect of (additional) preincubation (SARS-CoV2 [8]; VPA: additional preincubation up to 5 days, DHA: preincubation): did not provide any additional effects | % viral RNA detected compared to control MRC5 cells without drug (SARS-CoV2 [8]; preincubation by 24 hours): less than 10% | % viral RNA detected compared to control MRC5 cells without drug (SARS-CoV2 [8]; without preincubation): 20% | pIC50 (HCoV-229E [1]; MRC5, HCoV-229E, no preincubation, read-out: IC50 in conventional coronavirus replication assay): ~2.30 | IC50 (HCoV-229E [1]; MRC5, HCoV-229E, no preincubation, read-out: IC50 in conventional coronavirus replication assay, translated): > 720 mg/L | pIC50 (HCoV-229E [1]; MRC5, read-out: IC50 for inhibition of viral replication, MRC5 incubated with valproic acid at least 24 hours prior to infection): ~3.22 | IC50 (HCoV-229E [1]; MRC5, read-out: IC50 for inhibition of viral replication, corresponding serum level, MRC5 incubated with valproic acid at least 24 hours prior to infection): 85 mg/L | dose required for antiviral activity (HCoV-229E [1]; VPA used alone, in vitro testing): > 0.6 mM | dose requirement of VPA for antiviral activity in combination with DHA (HCoV-229E [1]; combination of DHA and VPA in vitro (FIG. 4B)): 0.1 mM | fold reduction of IC50 for inhibition of viral replication by VPA preincubation (HCoV-229E [1]): more than 3 fold | fold reduction of IC50 for inhibition of viral replication by VPA preincubation (HCoV-229E [1]; listed as valproic acid): ~10 fold | time of earliest p21 induction (p21): 24 h | time of maximal p21 induction (p21): 72 h | OR for contracting COVID-19 (COVID-19 [9]): 0.218 | share of samples testing 79 μg/mL or higher ([10]; LabCorp, second quarter of 2021): 25% | serum VPA level, mean [10, 13]: 56.7 µg/mL and 56.65 µg/mL | serum VPA level, median [10, 13]: 59.0 µg/mL and 59 µg/mL | expression of viral pathogenicity and replication genes (Gordon gene set) (MRC5 cells; MRC5 cells, VPA 24 and 48 hours): down-regulated preferentially | time before gene expression profile changes can be detected (MRC5 cells; coronavirus permissive cell lines, VPA time course): at least 24 hours | time of maximal gene expression profile changes (MRC5 cells; coronavirus permissive cell lines, VPA time course, in some cases): 72 to 96 h | target serum concentrations for seizure disorder [11]: 50 to 100 µg/mL

C/C=C1\NC(=O)[C@H]2CSSCC/C=C/[C@H](CC(=O)N[C@H](C(C)C)C(=O)N2)OC(=O)[C@H](C(C)C)NC1=O [depsipeptide]
pIC50 (HCoV-229E [1]; MRC5, read-out: IC50 of inhibition of viral replication, with 25 μM DHA): 10.00 | pIC50 (HCoV-229E [1]; MRC5, read-out: IC50 of inhibition of viral replication, without DHA): 9.10 | inhibition of HCoV-229E viral replication, agent alone (HCoV-229E [1]): significant inhibition of viral replication
